Laboratory results taken from patent US9321791B2, “8-[3-amino-piperidin-1-yl]-xanthines, the preparation thereof and their use as pharmaceutical compositions” (Boehringer Ingelheim International GmbH, priority 2002, dated 2016).

Tested on: rats
Assay: Tolerability after oral administration to rats
Type: in vivo
Details: 10 mg/kg

Q: Which “changes in the animals' behaviour” value does the source give for `CC#CCn1c(N2CCC[C@@H](N)C2)nc2c1c(=O)n(Cc1ncc3ccccc3n1)c(=O)n2C` [2(80), 1-[(quinazolin-2-yl)methyl]-3-methyl-7-(2-butyn-1-yl)-8-((R)-3-amino-piperidin-1-yl)-xanthine] here?
A: no changes in the animals' behaviour could be detected
